Test results from the NIST ThermoML archive (doi:10.1016/j.jct.2010.08.010).

Settings: Liquid, Buoyancy - hydrostatic balance with magnetic suspension - one sinker

C1CCCCC1 [cyclohexane]
Settings	mass density [kg/m3]
293.15 K, 99.46 kPa	778.632
293.15 K, 1102 kPa	779.471
293.15 K, 2002.4 kPa	780.22
293.15 K, 4003.9 kPa	781.856
293.15 K, 6003.8 kPa	783.454
293.15 K, 8003.3 kPa	785.025
293.15 K, 10042 kPa	786.595
293.15 K, 12046 kPa	788.105
293.15 K, 13919 kPa	789.495
293.15 K, 15982 kPa	790.995
293.15 K, 17946 kPa	792.401
293.15 K, 20017 kPa	793.855
313.15 K, 102.48 kPa	759.667
313.15 K, 1139 kPa	760.675
313.15 K, 2012.2 kPa	761.509
313.15 K, 4102.4 kPa	763.47
313.15 K, 5932.8 kPa	765.157
313.15 K, 7910.5 kPa	766.936
313.15 K, 10018 kPa	768.784
313.15 K, 12069 kPa	770.545
313.15 K, 13965 kPa	772.137
313.15 K, 15902 kPa	773.737
313.15 K, 17956 kPa	775.394
313.15 K, 20142 kPa	777.123
333.15 K, 1112.4 kPa	741.367
333.15 K, 2043.6 kPa	742.401
333.15 K, 3988 kPa	744.517
333.15 K, 5966.8 kPa	746.613
333.15 K, 8141.8 kPa	748.853
333.15 K, 10007 kPa	750.72
333.15 K, 11994 kPa	752.664
333.15 K, 14093 kPa	754.666
333.15 K, 15963 kPa	756.414
333.15 K, 17995 kPa	758.261
333.15 K, 19861 kPa	759.929
353.15 K, 1109.9 kPa	721.547
353.15 K, 1973.2 kPa	722.669
353.15 K, 4000 kPa	725.242
353.15 K, 6001.3 kPa	727.698
353.15 K, 8046.5 kPa	730.125
353.15 K, 10046 kPa	732.423
353.15 K, 11820 kPa	734.413
353.15 K, 13860 kPa	736.633
353.15 K, 15940 kPa	738.835
353.15 K, 18023 kPa	740.978
353.15 K, 20003 kPa	742.965
373.15 K, 1115.5 kPa	701.065
373.15 K, 1950.1 kPa	702.346
373.15 K, 4154.1 kPa	705.638
373.15 K, 6126 kPa	708.455
373.15 K, 8029.4 kPa	711.079
373.15 K, 9951.2 kPa	713.63
373.15 K, 12097 kPa	716.383
373.15 K, 13877 kPa	718.592
373.15 K, 16148 kPa	721.319
373.15 K, 18078 kPa	723.568
373.15 K, 19877 kPa	725.607
393.15 K, 1162.9 kPa	679.792
393.15 K, 1960.3 kPa	681.265
393.15 K, 3901.4 kPa	684.723
393.15 K, 5983.9 kPa	688.253
393.15 K, 7986.4 kPa	691.487
393.15 K, 9903.3 kPa	694.452
393.15 K, 11975 kPa	697.527
393.15 K, 13821 kPa	700.163
393.15 K, 16029 kPa	703.195
393.15 K, 18027 kPa	705.845
393.15 K, 20004 kPa	708.371
413.15 K, 1196.7 kPa	657.32
413.15 K, 2172.6 kPa	659.527
413.15 K, 4146.4 kPa	663.767
413.15 K, 6122.3 kPa	667.756
413.15 K, 8132.6 kPa	671.583
413.15 K, 10013 kPa	674.989
413.15 K, 11993 kPa	678.397
413.15 K, 14004 kPa	681.703
413.15 K, 16053 kPa	684.936
413.15 K, 18098 kPa	688.022
413.15 K, 19935 kPa	690.694
433.15 K, 1086.7 kPa	632.817
433.15 K, 2070.6 kPa	635.63
433.15 K, 4050.3 kPa	640.931
433.15 K, 6077 kPa	645.937
433.15 K, 8181.7 kPa	650.742
433.15 K, 10077 kPa	654.811
433.15 K, 12111 kPa	658.913
433.15 K, 13890 kPa	662.325
433.15 K, 15959 kPa	666.096
433.15 K, 18073 kPa	669.76
433.15 K, 20010 kPa	672.969
453.15 K, 2100.8 kPa	609.942
453.15 K, 4117.3 kPa	616.844
453.15 K, 6121.3 kPa	623.004
453.15 K, 8117.4 kPa	628.596
453.15 K, 9915.4 kPa	633.254
453.15 K, 11931 kPa	638.115
453.15 K, 13935 kPa	642.628
453.15 K, 15959 kPa	646.918
453.15 K, 18103 kPa	651.206
453.15 K, 19890 kPa	654.601
473.15 K, 2403.5 kPa	582.448
473.15 K, 3924.9 kPa	589.431
473.15 K, 6045.2 kPa	597.933
473.15 K, 8093.2 kPa	605.148
473.15 K, 9884.3 kPa	610.832
473.15 K, 11911 kPa	616.733
473.15 K, 13943 kPa	622.171
473.15 K, 16018 kPa	627.319
473.15 K, 18133 kPa	632.216
473.15 K, 20025 kPa	636.335
